Assay results reported in US11578055B2, “Triazacyclododecansulfonamide (“TCD”)-based protein secretion inhibitors” (KEZAR LIFE SCIENCES, priority 2018, dated 2023).

Assays:
[1] = test system: PD1 signal sequence plus 10 amino acids fused to Gaussia Luciferase (PD1-ss+10aa/Gaussia Luciferase); test: Dox Induced PD1-ss-Gluc Assay; type: cell-based; details: 24 hr, 293FRT/TO; read-out: 24 hr Dox Inducible PD1ssGluc 293FRT/TO: Mean IC50
Method in brief: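 Compound dilutions in DMSO/media containing doxycycline were applied to a stable, inducible 293 T-REx line carrying the luciferase fusion, then incubated at 37 °C, 5% CO2. Where stereochemistry is not drawn, values relate to isomer mixtures.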

[2] = test system: full length TNFα (amino acids 1-233) fused to Gaussia Luciferase; test: Dox Induced TNFα-FL-Gluc Assay; type: cell-based; details: 24 hr, 293FRT/TO; read-out: 24 hr Dox Inducible TNFaFLGluc 293FRT/TO: Mean IC50
Method in brief: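 Compounds diluted in DMSO/medium with doxycycline were incubated at 37° C, 5% CO2 with 293 T-REx cells stably carrying a Tet-regulated TNFα(1-233)-Gaussia luciferase construct. Data for structures drawn without stereochemistry refer to stereoisomer mixtures.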

[3] = test system: multiple myeloma cell line NCl-H929; test: H929 Cell Viability Assay; type: cell-based, human; details: Homo sapiens, NCI-H929, 48 h, H929, read-out: 48 hr H929 Viability Celltiter-Glo: Mean EC50
Method in brief: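 Viability was determined by CellTiter-Glo luminescence after a 48 h, 37 °C exposure of NCI-H929 cells to serial compound dilutions in medium containing 10% FBS. Where stereochemistry is not shown, values refer to a mix of stereoisomers.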

[4] = test system: multiple myeloma cell line U266B1; test: U266 Cell Viability Assay; type: cell-based, human; details: Homo sapiens, U-266; 48 hr, U266; read-out: 48 hr U266 Viability Celltiter-Glo: Mean EC50
Method in brief: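 Viability was measured by CellTiter-Glo luminescence after 48 h compound exposure at 37° C, 5% CO2. The cells were U266B1 multiple myeloma cells grown in RPMI 1640 plus 10% FBS. Where stereochemistry is not shown, values apply to the stereoisomer mixture.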

[5] = In Vitro Microsome Stability Assay (human); type: in vitro ADME; details: human, 30 min, NADPH
Method in brief: (§1)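 The value reported is the percentage of parent left after 30 min, calculated from analyte/IS peak-area ratios relative to time zero by LC-MS/MS. Incubations ran at 37° C in 0.1 M potassium phosphate with NADPH and microsomes (stock 20 mg/mL), with compound added from a 0.25 mM DMSO stock. Acetonitrile containing IS stopped the reactions.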

[6] = In Vitro Microsome Stability Assay (mouse); type: in vitro ADME; details: mouse, 30 min, NADPH
Method in brief: as §1

[7] = In Vitro Microsome Stability Assay (rat); type: in vitro ADME; details: rat, 30 min, NADPH
Method in brief: as §1

[8] = In Vitro Microsome Stability Assay (monkey); type: in vitro ADME; details: monkey, 30 min, NADPH
Method in brief: as §1

Row | SMILES | IC50 [1] [µM] | IC50 [2] [µM] | EC50 [3] [µM] | EC50 [4] [µM] | Liver Microsome Stability-% Left after 30 min w/ NADPH (%) Human [5] [%] | Liver Microsome Stability-% Left after 30 min w/ NADPH (%) Mouse [6] [%] | Liver Microsome Stability-% Left after 30 min w/ NADPH (%) Rat [7] [%] | Liver Microsome Stability-% Left after 30 min w/ NADPH (%) Monkey [8] [%]
1 | C=C1CN(S(=O)(=O)c2ccc(N(C)C)cc2)CCCN(CC2CCCCC2)CCCN(S(=O)(=O)N2CCc3cc(Cl)ccc3C2)C1 [A53, 4-({5-[(6-chloro-1,2,3,4-tetrahydroisoquinolin-2-yl)sulfonyl]-9-(cyclohexylmethyl)-3-methylidene-1,5,9-triazacyclododecan-1-yl}sulfonyl)-N,N-dimethylaniline] | 0.0353 | 1.01 | 1.72 | > 10.3 | 38 | 39.2 | 50.5 | 39
2 | C=C1CN(S(=O)(=O)c2ccc(N(C)C)cc2)CCCN(CC2CCCCC2)CCCN(S(=O)(=O)N2CCC(Oc3ccccc3)CC2)C1 [A37, 4-{[9-(cyclohexylmethyl)-3-methylidene-5-[(4-phenoxypiperidin-1-yl)sulfonyl]-1,5,9-triazacyclododecan-1-yl]sulfonyl}-N,N-dimethylaniline] | 0.202 | > 25 | > 25 | > 25 | 8.26 | 6.03 | 13.5 | 5.69
3 | C=C1CN(S(=O)(=O)c2ccc(N(C)C)cc2)CCCN(CC2CCCCC2)CCCN(S(=O)(=O)N2CCC(c3ccc(Cl)cc3)CC2)C1 [A72, 4-[(5-{[4-(4-chlorophenyl)piperidin-1-yl]sulfonyl}-9-(cyclohexylmethyl)-3-methylidene-1,5,9-triazacyclododecan-1-yl)sulfonyl]-N,N-dimethylaniline] | 0.0962 | 6.97 | 10.3 | > 25 | 62.5 | 43.3 | 54.6 | 53.2

The remaining lines, values ahead:

Row | IC50 [1] [µM] | IC50 [2] [µM] | EC50 [3] [µM] | EC50 [4] [µM] | Liver Microsome Stability-% Left after 30 min w/ NADPH (%) Human [5] [%] | Liver Microsome Stability-% Left after 30 min w/ NADPH (%) Mouse [6] [%] | Liver Microsome Stability-% Left after 30 min w/ NADPH (%) Rat [7] [%] | Liver Microsome Stability-% Left after 30 min w/ NADPH (%) Monkey [8] [%] | SMILES
4 | 17.5 | > 25 | > 25 | > 25 | 0.08 | 0.2 | 0.14 | 0.1 | O=S(=O)(C1CCCCC1)N1CCCN(CC2CCCCC2)CCCN(S(=O)(=O)N2CCCCC2)CC2(CC2)C1 [A41]
5 | 0.991 | > 25 | > 25 | > 25 | 0.19 | 0.07 | 0.4 | 0.1 | C=C1CN(S(=O)(=O)c2ccc(N(C)C)cc2)CCCN(CC2CCCCC2)CCCN(S(=O)(=O)N2CCN(c3ccccc3)C(=O)C2)C1 [A48, 4-{[9-(cyclohexylmethyl)-5-[4-(dimethylamino)benzenesulfonyl]-3-methylidene-1,5,9-triazacyclododecan-1-yl]sulfonyl}-1-phenylpiperazin-2-one]
6 | 0.793 | > 25 | > 25 | > 25 | 0.12 | 0.35 | 0.28 | 0.03 | Cc1cc(N(C)C)ccc1S(=O)(=O)N1CCCN(CC2CCCCC2)CCCN(S(=O)(=O)N2CCCCC2)CC2(CC2)C1 [A30, 4-{[9-(cyclohexylmethyl)-13-(piperidine-1-sulfonyl)-5,9,13-triazaspiro[2.11]tetradecan-5-yl]sulfonyl}-N,N,3-trimethylaniline]
